Consider 23 molecules from patent US20130047297A1, “POLYNUCLEOTIDE MOLECULES FOR GENE REGULATION IN PLANTS” (priority 2010, published 2013).

Common to all, as to type: in vivo
The subject of data set [1] is glyphosate-resistant Palmer amaranth plants. The data set is described as follows: Salts, EDTA, glycerin as additives to polynucleotide spray solutions (Example 35, Tables 26-28). Conditions: for enhancing the efficacy of the polynucleotides and potentiating the herbicidal activity of glyphosate: additive in the spray solution.
Data set [2] has as its system Nicotiana benthamiana phytoene desaturase. The experiment in a line: Topical oligonucleotides/polynucleotides on tobacco, PDS bleaching and chlorophyll (Example 10). The conditions noted are these: for bleaching of apical leaves (FIG. 14): topical treatment; for Chlorophyll (day 12) / Chlorophyll (day 7): 6 spots on the apical area; for Chlorophyll (day 12): buffer control 38.4; for Chlorophyll (day 7): lower values indicate suppression of phytoene desaturase, buffer control 31.2; for Bleaching (day 5): 25 microM each; for systematically regulating (suppressing) the target gene phytoene desaturase: Table 4 treatments; for bleaching of apical leaves (FIG. 15): another assay. On the procedure: The following procedure was used for all assays described in this example. Four-week old Nicotiana benthamiana plants were used in all assays. Plants were treated with 0.1% Silwet L-77 solution freshly made with ddH2O. Two fully expanded leaves per plant (one cotyledon, one true leaf) were dipped into the Silwet L-77 solution for a few seconds, and allowed to dry for 15-30 minutes before application of the polynucleotide composition. Final concentration for each oligonucleotide or polynucleotide was 25 microM (in 0.01% Silwet L-77, 5 mM sodium phosphate buffer, pH 6.8) unless otherwise stated. 20 microliters of the solution was applied to the top surface of each of the two pre-treated leaves to provide a total of 40 microliters (1 nmol oligonucleotide or polynucleotide) for each plant. Leaf bleaching was observed 3 days post treatment.
FIG. 13 illustrates phenotypes observed at day 12 after treatment in another assay of the effect from twelve combinations of polynucleotides or oligonucleotides (see Table 4). Table 4 also lists observations of visible bleaching of the plants at day 5 after treatment and the results of chlorophyll measurements taken at days 7 and 12 after treatment. Chlorophyll measurements are an indication of suppression of the target gene phytoene desaturase, and measurements were taken at 6 spots on the apical area, focussing on visibly bleached leaves or (in plants without visible bleaching) on leaves in equivalent locations on the plants; lower chlorophyll measurement values indicate suppression of phytoene desaturase.

Data set [3] has as its system glyphosate-resistant Palmer amaranth containing 16 copies of EPSPS. The data set is described as follows: Glyphosate counter-ions with EPSPS polynucleotides (Example 35, Table 29). Conditions: for Palmer control (%) / Palmer height (cm): 1682 g acid equivalent per hectare of the glyphosate salt, with or without EPSPS polynucleotides (IDT [1]-[4]) in 0.5% Silwet L-77, 2% ammonium sulfate, 16 copies of EPSPS, 21 days after treatment; for herbicidal activity compared to the potassium salt: 1682 g acid equivalent per hectare of glyphosate salt with IDT [1]-[4], 21 days after glyphosate treatment. From the text:
FIG. 38 depicts the effect of varying glyphosate counter-ions on herbicidal activity (presented as percent of weed control/kill, and as plant height) of topically applied polynucleotides (RNA) on glyphosate-resistant Palmer amaranth plants. A mixture of EPSPS polynucleotides (IDT [1] (SEQ ID NO:83-84), IDT [2] (SEQ ID NO:85-86), IDT [3] (SEQ ID NO:87-88), and IDT [4] (SEQ ID NO:89-90)) in 0.5% Silwet L-77, 2% ammonium sulfate in 10 millimolar sodium phosphate buffer, pH 6.8 with 0.2% Roundup® WeatherMax® carrier (MON56151 tallowamine surfactant blend of tallowamine (16-18C) and cocoamine (12-14C) in the ratio of 55:45) and 1682 g acid equivalent per hectare of one of the glyphosate salts; K+ glyphosate, isopropylammonium+ glyphosate or monoethanolammonium+ glyphosate at 215 liters/acre by Milli spray on 3 replicates of 4-6 inch glyphosate-resistant Palmer amaranth containing 16 copies of EPSPS. Plant height was scored at 21 days after glyphos ate treatment.

Where [4] appears, read: 2% salt as additive to 1% Silwet L-77 spray solution of topically applied polynucleotides (RNA), glyphosate.
Setting [5] is: Table 26: additive to 1% Silwet L-77 spray solution of polynucleotides (RNA), glyphosate.

For the molecule `N.N.O=S(=O)(O)O` [ammonium sulfate], the “Palmer control (%)” value was 54% in data set [1] (setting [4]) and 43% in data set [1] (in vivo). Further, the “Palmer height (cm)” value in data set [1] (setting [4]) amounted to 9.3 cm; in data set [1] (setting [5]), 1.8 cm.

On to “PDS 18-mer anti-sense ssDNA: SEQ ID NO:33 (antisense CATCTCCTTTAATTGTAC; DNA, backbone not given here)”, for which the “bleaching of apical leaves (FIG. 14)” value in data set [2] is recorded as “Little or no visible bleaching”.

Consider “Oligos 1 and 2 without T7 promoter: SEQ ID NOs 18, 19 (chain 1 GCAAGAGATGTCCTAGGTGGG; chain 2 ACAGATTTCTTCAGGAGAAACATGG; DNA, backbone not given here)”, for which, in data set [2], the “Chlorophyll (day 12)” value came out at 41.1, the “Chlorophyll (day 7)” value is recorded as 32.0 and the “systematically regulating (suppressing) the target gene phytoene desaturase” value (shortened to “systematically regulating”) is “did not suppress”. The “Bleaching (day 5)” value in data set [2] (40 microliters per plant) was “not yet”.

Take `C[N+](C)(C)C.[Cl-]` [tetramethylammonium chloride]: in data set [1] (in vivo), the “Palmer control (%)” value was found to be 19% and the “Palmer height (cm)” value is listed as 15.0 cm.

“PDS 15-mer anti-sense ssDNA: SEQ ID NO:32 (antisense CATCTCCTTTAATTG; DNA, backbone not given here)”: the “bleaching of apical leaves (FIG. 14)” value in data set [2] is given as “Little or no visible bleaching”.

As to `O=C(O)CNCP(=O)([O-])O.[K+]` [K + glyphosate], in data set [3], the “Palmer control (%)” value stood at 23% and the “Palmer height (cm)” value was 12.3 cm.

For the molecule `NCCO.O=C(O)CNCP(=O)(O)O` [MEA + glyphosate], in data set [3], the “Palmer control (%)” value is 9% and the “Palmer height (cm)” value amounted to 14.5 cm.

Consider `CCCC[P+](CCCC)(CCCC)CCCC.[Br-]` [tetrabutylphosphonium bromide], for which, in data set [1], the “enhancing the efficacy of the polynucleotides and potentiating the herbicidal activity of glyphosate” value (shortened to “enhancing the efficacy”) is “act similarly to ammonium sulfate”.

As for `O=C(O)CN(CCN(CC(=O)O)CC(=O)O)CC(=O)O` [EDTA, ethylenediaminetetraacetic acid], the “Palmer control (%)” value in data set [1] (Table 26: additive (2% ammonium sulfate; 0.004% EDTA) to 1% Silwet L-77 spray solution of polynucleotides (RNA), glyphosate) was determined as 45%. In addition, the “Palmer height (cm)” value in data set [1] (setting [5]) worked out at 1.0 cm. Also, in data set [1], the “enhancing the efficacy” value was “act similarly to 2% ammonium sulfate”.

Turning to `OCC(O)CO` [Glycerin, glycerin], in data set [1], the “enhancing the efficacy” value is “enhance the efficacy of the polynucleotides”.

Take `CC(C)N.O=C(O)CNCP(=O)(O)O` [IPA + glyphosate]: in data set [3], the “Palmer control (%)” value was determined as 9% and the “Palmer height (cm)” value is recorded as 14.5 cm.

As to “PDS 33-mer anti-sense ssDNA: SEQ ID NO:35 (antisense CATCTCCTTTAATTGTACTGCCATTATTCAGTA; DNA, backbone not given here)”, the “bleaching of apical leaves (FIG. 14)” value in data set [2] is reported as “Strong bleaching”.

Regarding `NCCO.O=C(O)CNCP(=O)(O)O` [monoethanolammonium+ glyphosate, reference compound], the “herbicidal activity compared to the potassium salt” value in data set [3] was “better herbicidal activity”.

`CC[N+](CC)(CC)CC.[Cl-]` [tetraethylammonium chloride]: in data set [1] (setting [4]), the “Palmer control (%)” value was found to be 27% and the “Palmer height (cm)” value is listed as 12.0 cm.

`[Cl-].[Na+]` [sodium chloride]: in data set [1] (setting [4]), the “Palmer control (%)” value worked out at 15% and the “Palmer height (cm)” value was 15.0 cm.

Turning to “Oligo 3 without T7 promoter: SEQ ID NOs 22, 23; PDS anti-sense 22-mer oligonucleotides without a T7 promoter (antisense 1 CATCTCCTTTAATTGTACTGCC; antisense 2 TTTAATTGTACTGCCATTATTC; listed as DNA, chemistry not given here)”, in data set [2], the “Chlorophyll (day 12)” value was 3.2, the “Chlorophyll (day 7)” value is given as 11.3, the “systematically regulating” value was “effective” and the “bleaching of apical leaves (FIG. 15)” value is “strong bleaching”. Besides, the “bleaching of apical leaves (FIG. 14)” value in data set [2] was “Strong bleaching”. Further, in data set [2] (40 microliters per plant), the “Bleaching (day 5)” value is on record as “strong”.

As to `O=S(=O)([O-])[O-].[Na+].[Na+]` [sodium sulfate], in data set [1] (in vivo), the “Palmer control (%)” value is given as 7% and the “Palmer height (cm)” value is given as 17.0 cm.

For the molecule “PDS 21-mer sense ssDNA: SEQ ID NO:36 (sense GCAGTACAATTAAAGGAGATG; DNA, backbone not given here)”, the “bleaching of apical leaves (FIG. 15)” value in data set [2] is given as “Little or no visible bleaching”.

Consider `Cl.N` [ammonium chloride], for which, in data set [1] (setting [4]), the “Palmer control (%)” value was 52% and the “Palmer height (cm)” value amounted to 10.3 cm. For the same molecule, in data set [1], the “enhancing the efficacy” value is reported as “act similarly to ammonium sulfate”.

In the case of `CC(C)N.O=C(O)CNCP(=O)(O)O` [isopropylammonium+ glyphosate, reference compound], the “herbicidal activity compared to the potassium salt” value in data set [3] was “better herbicidal activity”.

B1: PDS 700-mer dsRNA: dsRNA designed from nucleotides 421-1120 of SEQ ID NO:2 (nucleic acid, listed as Nicotiana benthamiana)
DNA: GCAAGAGATGTCCTAGGTGGGAAGGTAGCTGCATGGAAAGATGATGATGGAGATTGGTACGAGACTGGGTTGCACATATTCTTTGGGGCTTACCCAAATATGCAGAACCTGTTTGGAGAACTAGGGATTGATGATCGGTTGCAGTGGAAGGAACATTCAATGATATTTGCGATGCCTAACAAGCCAGGGGAGTTCAGCCGCTTTGATTTTCCTGAAGCTCTTCCTGCGCCATTAAATGGAATTTTGGCCATACTAAAGAACAACGAAATGCTTACGTGGCCCGAGAAAGTCAAATTTGCTATTGGACTCTTGCCAGCAATGCTTGGAGGGCAATCTTATGTTGAAGCTCAAGACGGTTTAAGTGTTAAGGACTGGATGAGAAAGCAAGGTGTGCCTGATAGGGTGACAGATGAGGTGTTCATTGCCATGTCAAAGGCACTTAACTTCATAAACCCTGACGAGCTTTCGATGCAGTGCATTTTGATTGCTTTGAACAGATTTCTTCAGGAGAAACATGGTTCAAAAATGGCCTTTTTAGATGGTAACCCTCCTGAGAGACTTTGCATGCCGATTGTGGAACATATTGAGTCAAAAGGTGGCCAAGTCAGACTAAACTCACGAATAAAAAAGATCGAGCTGAATGAGGATGGAAGTGTCAAATGTTTTATACTGAATAATGGCAGTACAATTAAAGGAGATG
modifications: dsRNA of this region
For B1, the “bleaching of apical leaves (FIG. 14)” value in data set [2] was “Strong bleaching”.

B2: 200-mer dsRNA polynucleotide: dsRNA corresponding to nucleotides 914-1113 of SEQ ID NO:2 (nucleic acid, listed as Nicotiana benthamiana)
sense: ACAGATTTCTTCAGGAGAAACATGGTTCAAAAATGGCCTTTTTAGATGGTAACCCTCCTGAGAGACTTTGCATGCCGATTGTGGAACATATTGAGTCAAAAGGTGGCCAAGTCAGACTAAACTCACGAATAAAAAAGATCGAGCTGAATGAGGATGGAAGTGTCAAATGTTTTATACTGAATAATGGCAGTACAATTAAA
modifications: complementary strand
In the case of B2, in data set [2], the “Chlorophyll (day 12)” value stood at 4.0, the “Chlorophyll (day 7)” value is 11.3 and the “systematically regulating” value is “effective”. The “Bleaching (day 5)” value in data set [2] (40 microliters per plant) was “strong”. Besides, the “bleaching of apical leaves (FIG. 12A)” value in data set [2] (200-mer dsRNA at 0.6 microM, oligonucleotides 25 microM each, 40 microliters per plant) is reported as “Bleaching of apical leaves was observed”.

B3: Oligos 1, 2, and 3 w/o T7 promoter and oligos 4, 5, & 6: SEQ ID NOs 18, 19, 22, 23, 24, 25, 26 (nucleic acid)
chain 1: GCAAGAGATGTCCTAGGTGGG
chain 2: ACAGATTTCTTCAGGAGAAACATGG
chain 3: CATCTCCTTTAATTGTACTGCC
chain 4: TTTAATTGTACTGCCATTATTC
chain 5: CACTTCCATCCTCATTCAGCTCGAT
chain 6: ACACCTCATCTGTCACCCTATCAG
chain 7: CAGTCTCGTACCAATCTCCATCAT
modifications: DNA, backbone not given here
B3: in data set [2], the “Chlorophyll (day 12)” value came out at 34.4 and the “Chlorophyll (day 7)” value came to 30.2. For the same molecule, the “Bleaching (day 5)” value in data set [2] (40 microliters per plant) was “not yet”.
